From PubChem BioAssay (NCI) come the findings set out here.

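These data come from cells grown in 96-well plates and exposed to compound for 48 hours at five concentrations. TGI denotes the concentration required for complete inhibition of growth.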

Assay in all cases: NCI-60 cell line screen, 48 h
Assay [1] relates to HCC-2998 colon.
Assay [2] relates to U251 CNS.
Assay [3] concerns HL-60(TB) leukemia.
Assay [4] deals with EKVX NSCLC.
For assay [5], the system named is KM12 colon.
Assay [6] relates to CCRF-CEM leukemia.
Assay [7] deals with NCI-H23 lung.
Assay [8] deals with NCI-H522 lung.
In assay [9] the test system is SNB-75 CNS.
The subject of assay [10] is NCI-H460 lung.
Assay [11] has as its system SK-OV-3 ovarian.
Assay [12] deals with SK-MEL-28 melanoma.
The subject of assay [13] is HOP-92 NSCLC.
For assay [14], the system named is NCI/ADR-RES ovarian.
The subject of assay [15] is DU-145 prostate.

In the case of `C/C(CN1C(=O)c2ccccc2C1=O)=N\NS(=O)(=O)c1ccc(Cl)cc1`, the TGI in assay [1], in [2], in assay [3], in assay [4], in assay [5] and in assay [6] was above 100 µM throughout. The TGI in assay [7], in [8], in assay [9] and in assay [10] was above 100 µM throughout.
In the case of `COCCOCOC(CCCCO)c1cc(C)c(O[Si](C)(C)C(C)(C)C)c(C)c1` (stereo not drawn), the TGI in assay [1] amounted to 19.8 µM; in [2], 23.6 µM; in assay [3], 6.02 µM; in assay [4], 22.6 µM; in assay [5] it was 18.6 µM; in [6], 18.1 µM. Also, the TGI worked out at 18.7 µM in assay [7]; 31.8 µM in assay [11]; 6 µM in [8]; 23.9 µM in assay [9]; 25.2 µM in assay [12]; 20.2 µM in assay [10].
For `CC(=O)OCCOCNC(=S)N/N=C/c1ccc([N+](=O)[O-])o1`, the TGI in [1] was above 100 µM; in assay [2], above 100 µM; in assay [3] it was 39.2 µM; in [4], above 100 µM; in assay [5], above 100 µM; in assay [6], above 100 µM. The TGI in assay [7], in assay [11], in assay [8], in [9], in [12] and in [10] was above 100 µM in each case.
As to `COc1cc(-c2cccs2)sc1-c1cccs1`, the TGI in assay [1] is above 100 µM; in assay [2], above 100 µM; in assay [3], 36.6 µM; in assay [4], above 100 µM; in assay [5], above 100 µM; in assay [6], above 100 µM. The TGI is above 100 µM in [7]; above 100 µM in assay [11]; above 100 µM in [8]; 66.5 µM in assay [9]; above 100 µM in [12]; 78.9 µM in [13]. In [10], this compound gave a TGI above 100 µM.
For `CCOC(=O)/C(=C/c1ccc(OC)cc1)N(CC)CC`, the TGI in assay [1], in assay [2], in assay [3], in [4], in assay [5] and in assay [6] was above 100 µM in each case. Further, the TGI in [7], in assay [11], in [8], in assay [12], in [13] and in [10] was above 100 µM in each case.
Regarding `CN(C)CC1CCC/C1=N/OC(=O)c1ccccc1` (stereo not drawn), the TGI in assay [1], in assay [2], in assay [6], in assay [7], in assay [11] and in assay [8] was above 100 µM in each case. Also, the TGI in assay [9], in [12], in assay [13] and in assay [10] was above 100 µM throughout.
`O=C(Nc1nc(=S)[nH][nH]1)C(=O)C(C(=O)c1ccc2ccccc2c1)C1OC(=O)c2ccccc21` (stereo not drawn): the TGI is 24 µM in assay [1]; above 100 µM in [2]; above 100 µM in assay [4]; above 100 µM in [5]; 80.7 µM in assay [6]; 79.9 µM in [7]. For the same compound, the TGI is above 100 µM in [11]; 65.3 µM in assay [8]; 63.1 µM in assay [9]; 49.1 µM in assay [12]; 73.7 µM in assay [13]; above 100 µM in [10].
On to `CON(C)C(=O)C(C)N(Cc1ccccc1)Cc1ccccc1` (stereo not drawn), for which the TGI in assay [1], in assay [2], in assay [3], in assay [4], in assay [5] and in [6] was above 100 µM each time. Also, the TGI in assay [14], in assay [15], in assay [7], in [11], in assay [9] and in assay [12] was above 100 µM throughout. The TGI in assay [13] and in [10] was above 100 µM throughout.
On to `COc1cc2c(cc1O)[C@H](C)C(c1ccc(OC)c(OC)c1)O2` (stereo partly drawn), for which the TGI in assay [1] is above 100 µM; in [2] it was 37.8 µM; in assay [3], 13.7 µM; in assay [4], above 100 µM; in [5], above 100 µM; in assay [6], 25.6 µM. The TGI was 28.1 µM in [7]; above 100 µM in assay [11]; 30.8 µM in assay [8]; 11.7 µM in assay [9]; 23 µM in assay [12]; 23.1 µM in assay [13]. The compound further displayed a TGI in [10] of 4.87 µM.
Turning to `S=P1(Oc2ccccc2)NNP2(=NP(N3CC3)(N3CC3)=NP(N3CC3)(N3CC3)=N2)NN1` (stereo not drawn), the TGI in [1], in assay [2], in assay [3], in assay [4], in [5] and in assay [6] was above 100 µM each time. Also, the TGI in assay [7], in assay [11], in assay [8], in assay [9], in assay [12] and in assay [10] was above 100 µM each time.
Take `Nc1nc(Cl)cc(OCC2(CO)CC=CC2)n1`: the TGI in assay [1], in assay [2], in [3], in [4], in assay [6] and in [14] was above 100 µM each time. Further, the TGI in [15], in [7], in assay [8], in assay [9], in assay [12] and in assay [13] was above 100 µM in each case. The compound further showed a TGI in [10] above 100 µM.
Regarding `CNC(=O)NCCCC(NC(C)=O)C(=O)NCc1ccccc1` (stereo not drawn), the TGI in assay [1], in assay [2], in [4], in [5], in assay [6] and in [7] was above 100 µM each time. Besides, the TGI in [11], in assay [8], in assay [9], in [12], in assay [13] and in assay [10] was above 100 µM in each case.
For the compound `COc1ccc(NC(=S)c2ccc(CN3CCCCC3)s2)cc1`, the TGI in [1] stood at 32.3 µM; in assay [2], 34.8 µM; in assay [3], 31.9 µM; in [4] it was 41.3 µM; in [5], 35.7 µM; in assay [6], 34.5 µM. Also, the TGI in [14] was 93.8 µM; in assay [15] it was above 100 µM; in assay [7], 29.5 µM; in assay [11] it was 31.8 µM; in assay [8], 32.5 µM; in assay [12], 33.8 µM. The compound also yielded a TGI in [10] of 37.4 µM.
For the compound `COc1cc(C2C(Cl)C(=O)N2n2cnc3ccccc3c2=O)ccc1O` (stereo not drawn), the TGI in assay [1], in [2], in [4], in [5], in [6] and in [7] was above 100 µM each time. The TGI in [11], in [8], in [9], in assay [12] and in assay [10] was above 100 µM throughout.
In the case of `N#Cc1cccc(-n2[nH]c(=O)ccc2=O)c1`, the TGI in assay [1], in [2], in [3], in [5], in assay [6] and in assay [7] was above 100 µM in each case. Besides, the TGI in assay [8], in [9], in assay [12], in assay [13] and in [10] was above 100 µM each time.
`COc1ccc(C2Oc3cc(OC)c(OC)cc3C2CCl)cc1OC` (stereo not drawn): the TGI in assay [1], in assay [2], in assay [3], in assay [4], in [5] and in [6] was above 100 µM each time. In addition, the TGI in assay [8], in assay [9], in assay [12], in assay [13] and in [10] was above 100 µM throughout.
In the case of `CCNC(=O)c1ccc(C)c(N=NN(C)C)c1`, the TGI in assay [1], in assay [2], in [4], in [5], in assay [7] and in assay [8] was above 100 µM throughout. The TGI in [12], in [13] and in [10] was above 100 µM each time.
Consider `O=c1cc(-c2ccc3c(c2)OCO3)[nH]c2cc3c(cc12)OCO3`, for which the TGI in assay [1] is above 100 µM; in assay [2], 99 µM; in [3], 66.6 µM; in [4], above 100 µM; in assay [5], above 100 µM; in [6], above 100 µM. Further, the TGI in assay [7] is above 100 µM; in assay [11], 99.4 µM; in assay [8] it was above 100 µM; in assay [9], 13.7 µM; in [12], above 100 µM; in [13], above 100 µM. This compound also gave a TGI in [10] above 100 µM.
